Test results from patent publication US4112097A, “Antihypertensive agents” (Abbott Laboratories, priority 1977, dated 1978).

Legend:
[1] = system: spontaneously hypertensive (SH) rats; assay: Antihypertensive effect (blood pressure and heart rate) in spontaneously hypertensive rats; assay type: in vivo, rat; settings: N=4, mean
Description: The screening is conducted as follows:
Male spontaneously hypertensive (SH) rats are trained to be restrained in a wire mesh cylinder in a warming box, at least two training cycles being conducted before testing. The rats are warmed for about 1/2 hour period to blood pressure measurement, the warming box being maintained at a constant temperature of 36° C.
An occluding cuff attached to the programed sphymomanometer is placed near the base of the tail of each rat and the pressure in the cuff is increased automatically from 0 to 250 milimeters of mercury (mm Hg) at a rate of 10 mm Hg per second. The total time for each cycle of inflation and deflation of the cuff is 50 seconds and the interval between cycles is one minute.
A photocell is placed distal to the cuff to record the pulses due to forward motion of blood flow with each heart beat. As the pressure in the cuff increases, the pulse disappears completely at a point where cuff pressure equals or exceeds the arterial blood pressure and it reappears during deflation at approximately the same pressure. Five interference free signals for deflation are recorded for each rat. Rats with a blood pressure of 180 mm Hg or more during the control period are used in the study. Blood pressure and heart rate readings are recorded on a model VII Grass polygraph at intervals of 1, 3, 5 and 24 hours after administration of the drug.

[2] = cited from earlier work
[3] = background statement on prazosin; cited from earlier work
[4] = intraperitoneal 0.3 mg/kg, 1 hour
[5] = intraperitoneal 0.3 mg/kg, 3 hours
[6] = intraperitoneal 0.3 mg/kg, 5 hours
[7] = intraperitoneal 0.3 mg/kg, 24 hours
[8] = intraperitoneal 1 mg/kg, 1 hour
[9] = intraperitoneal 1 mg/kg, 3 hours
[10] = intraperitoneal 1 mg/kg, 5 hours
[11] = intraperitoneal 1 mg/kg, 24 hours
[12] = intraperitoneal 3 mg/kg, 1 hour
[13] = intraperitoneal 3 mg/kg, 3 hours
[14] = intraperitoneal 3 mg/kg, 5 hours
[15] = intraperitoneal 3 mg/kg, 24 hours
[16] = intraperitoneal 10 mg/kg, 1 hour
[17] = intraperitoneal 10 mg/kg, 3 hours
[18] = intraperitoneal 10 mg/kg, 5 hours
[19] = intraperitoneal 10 mg/kg, 24 hours
[20] = intraperitoneal 30 mg/kg, 1 hour
[21] = intraperitoneal 30 mg/kg, 3 hours
[22] = intraperitoneal 30 mg/kg, 5 hours
[23] = intraperitoneal 30 mg/kg, 24 hours

## COc1cc2nc(N3CCN(C(=O)c4ccco4)CC3)nc(N)c2cc1OC [Formula I, 2-[4-(2-furoyl)-1-piperazine-1-yl]-4-amino-6,7-dimethoxyquinazoline, reference compound]
[1]; [4]
  Percent Change BP (blood pressure): -20.8%
  Percent Change HR (heart rate): -2.5%
[1]; [5]
  Percent Change BP (blood pressure): -18.3%
  Percent Change HR (heart rate): -0.5%
[1]; [6]
  Percent Change BP (blood pressure): -13.8%
  Percent Change HR (heart rate): -12.0%
[1]; [7]
  Percent Change BP (blood pressure): -4.3%
  Percent Change HR (heart rate): -5.0%
[1]; [8]
  Percent Change BP (blood pressure): -20.0%
  Percent Change HR (heart rate): 2.8%
[1]; [9]
  Percent Change BP (blood pressure): -15.3%
  Percent Change HR (heart rate): 1.8%
[1]; [10]
  Percent Change BP (blood pressure): -13.5%
  Percent Change HR (heart rate): 10.5%
[1]; [11]
  Percent Change BP (blood pressure): 3.5%
  Percent Change HR (heart rate): 12.8%
[1]; [12]
  Percent Change BP (blood pressure): -45.0%
  Percent Change HR (heart rate): 0.3%
[1]; [13]
  Percent Change BP (blood pressure): -31.5%
  Percent Change HR (heart rate): -6.5%
[1]; [14]
  Percent Change BP (blood pressure): -26.3%
  Percent Change HR (heart rate): -17.0%
[1]; [15]
  Percent Change BP (blood pressure): -2.3%
  Percent Change HR (heart rate): -4.0%
[1]; [16]
  Percent Change BP (blood pressure): -41.0%
  Percent Change HR (heart rate): 5.8%
[1]; [17]
  Percent Change BP (blood pressure): -34.0%
  Percent Change HR (heart rate): 14.8%
[1]; [18]
  Percent Change BP (blood pressure): -27.0%
  Percent Change HR (heart rate): 7.3%
[1]; [19]
  Percent Change BP (blood pressure): -13.0%
  Percent Change HR (heart rate): -7.5%
[1]; [20]
  Percent Change BP (blood pressure): -43.3%
  Percent Change HR (heart rate): -1.8%
[1]; [21]
  Percent Change BP (blood pressure): -48.5%
  Percent Change HR (heart rate): 4.8%
[1]; [22]
  Percent Change BP (blood pressure): -55.5%
  Percent Change HR (heart rate): 3.5%
[1]; [23]
  Percent Change BP (blood pressure): -24.5%
  Percent Change HR (heart rate): -6.5%
[1]; oral 0.03 mg/kg, 1 hour
  Percent Change BP (blood pressure): -4.5%
  Percent Change HR (heart rate): 4.8%
[1]; oral 0.03 mg/kg, 3 hours
  Percent Change BP (blood pressure): -0.8%
  Percent Change HR (heart rate): -9.3%
[1]; oral 0.03 mg/kg, 5 hours
  Percent Change BP (blood pressure): -11.5%
  Percent Change HR (heart rate): -9.8%
[1]; oral 0.03 mg/kg, 24 hours
  Percent Change BP (blood pressure): 1.3%
  Percent Change HR (heart rate): -2.0%
[1]; oral 0.1 mg/kg, 1 hour
  Percent Change BP (blood pressure): -9.8%
  Percent Change HR (heart rate): 13.5%
[1]; oral 0.1 mg/kg, 3 hours
  Percent Change BP (blood pressure): -17.5%
  Percent Change HR (heart rate): 18.3%
[1]; oral 0.1 mg/kg, 5 hours
  Percent Change BP (blood pressure): -22.8%
  Percent Change HR (heart rate): 1.5%
[1]; oral 0.1 mg/kg, 24 hours
  Percent Change BP (blood pressure): -1.3%
  Percent Change HR (heart rate): 3.5%
[1]; oral 0.3 mg/kg, 1 hour
  Percent Change BP (blood pressure): -32.8%
  Percent Change HR (heart rate): -5.5%
[1]; oral 0.3 mg/kg, 3 hours
  Percent Change BP (blood pressure): -33.8%
  Percent Change HR (heart rate): -5.0%
[1]; oral 0.3 mg/kg, 5 hours
  Percent Change BP (blood pressure): -30.0%
  Percent Change HR (heart rate): -13.8%
[1]; oral 0.3 mg/kg, 24 hours
  Percent Change BP (blood pressure): -12.3%
  Percent Change HR (heart rate): 3.0%
[1]; oral 1 mg/kg, 1 hour
  Percent Change BP (blood pressure): -31.8%
  Percent Change HR (heart rate): 2.0%
[1]; oral 1 mg/kg, 3 hours
  Percent Change BP (blood pressure): -17.8%
  Percent Change HR (heart rate): 6.8%
[1]; oral 1 mg/kg, 5 hours
  Percent Change BP (blood pressure): -19.5%
  Percent Change HR (heart rate): -1.0%
[1]; oral 1 mg/kg, 24 hours
  Percent Change BP (blood pressure): -2.3%
  Percent Change HR (heart rate): 10.0%
[1]; oral 3 mg/kg, 1 hour
  Percent Change BP (blood pressure): -19.3%
  Percent Change HR (heart rate): 0.5%
[1]; oral 3 mg/kg, 3 hours
  Percent Change BP (blood pressure): -19.8%
  Percent Change HR (heart rate): 11.5%
[1]; oral 3 mg/kg, 5 hours
  Percent Change BP (blood pressure): -20.5%
  Percent Change HR (heart rate): 1.5%
[1]; oral 3 mg/kg, 24 hours
  Percent Change BP (blood pressure): 5.3%
  Percent Change HR (heart rate): 6.0%
[1]; oral 10 mg/kg, 1 hour
  Percent Change BP (blood pressure): -23.8%
  Percent Change HR (heart rate): 3.0%
[1]; oral 10 mg/kg, 3 hours
  Percent Change BP (blood pressure): -22.3%
  Percent Change HR (heart rate): 12.3%
[1]; oral 10 mg/kg, 5 hours
  Percent Change BP (blood pressure): -22.0%
  Percent Change HR (heart rate): -0.8%
[1]; oral 10 mg/kg, 24 hours
  Percent Change BP (blood pressure): -2.3%
  Percent Change HR (heart rate): 23.3%
[1]; oral 30 mg/kg, 1 hour
  Percent Change BP (blood pressure): -34.0%
  Percent Change HR (heart rate): -3.8%
[1]; oral 30 mg/kg, 3 hours
  Percent Change BP (blood pressure): -31.3%
  Percent Change HR (heart rate): -11.5%
[1]; oral 30 mg/kg, 5 hours
  Percent Change BP (blood pressure): -29.3%
  Percent Change HR (heart rate): -14.8%
[1]; oral 30 mg/kg, 24 hours
  Percent Change BP (blood pressure): -14.5%
  Percent Change HR (heart rate): -1.5%
[2]; The Lancet, May 10, 1975
  fall in blood pressure in words: profound fall in blood pressure
  toxicity in words: significant toxicity
[2]; following use of the drug, The Lancet and British Medical Journal, June 28, 1975
  collapse with loss of consciousness: Sudden collapse with loss of consciousness for periods ranging from a few minutes to one hour
[3]
  solubility in words: very low solubility
